{"source": "patent US11917993B2", "about": "“Antimicrobial compositions” (LANXESS Corporation, priority 2017, dated 2024)", "assay_type_in_all_cases": "cell-based", "key": {"[1]": {"test_system": "A. brasiliensis, C. albicans, E. coli, P. aeruginosa, S. aureus", "experiment": "Microbe challenge testing (USP 51 / EP) in tryptic soy broth growth media", "conditions": "for effectiveness against microbe strains compared to no antimicrobial: 0.5 wt. %; for concentration achieving passing efficacy according to EP criteria / concentration achieving passing efficacy according to USP-51 criteria / efficacy versus bacteria, yeast and mold: tryptic soy broth; for efficacy versus bacteria, yeast and mold: 30 minutes to 28 days", "description": "(§1) One skilled in the art would be able to determine and utilize other industry testing methods useful to evaluate the efficacy of the present inventive compositions.\n(§2) EP testing evaluates results at the 2-day, 7-day, 14-day, and 28-day marks.\n(§3) For the European Pharmacopeia, a “pass” test for efficacy is a two-log reduction for bacteria after two days, three-log reduction for bacteria after […], two-log reduction for mold and yeast at 14 days and no increase at 28 days.\nAs such, it is an exceptional test medium and surrogate for evaluating antimicrobial efficacy, particularly for water-based or aqueous applications, although its value is not limited as such.\nProduct use applications involve a variety of pH conditions. […] In addition, antimicrobial compositions were added in amounts reflecting the wt. % used in an end use product, based on the total weight of all of the components of the end use product.\nThe efficacy of 3-phenyl propanol in tryptic soy broth growth media at pH 6.5 versus a number of microbes was evaluated according to methods described in the Challenge Testing Methodology section, above.\nThe efficacy of 3-phenyl propanol in tryptic soy broth growth media at pH 8.0 versus a number of microbes was evaluated according to methods described in the Challenge Testing Methodology section above."}, "[2]": {"test_system": "A. brasiliensis, C. albicans, E. coli, P. aeruginosa, S. aureus", "experiment": "Microbe challenge testing (USP 51 / EP) in model skin lotion of Table 1", "description": "as §1, §2, §3\nSkin Lotion Formulation Experimental—An exemplary, model skin lotion having a pH of 6.5 as set forth below in Table 1 was prepared for testing. The invention is not limited to use in this specific lotion but was used to illustrate the advantages of the invention.\nUse of 3-phenyl propanol in the skin lotion formulation as set forth in Table 1 above was evaluated according to methods described in the Challenge Testing Methodology section above. In this efficacy screen study reflected in FIGS. 18 and 19, only the time intervals at 2-day and 14-day were measured, as these are critical time points for USP-51 and European Pharmacopeia. In this example, a triblend or tri-component antimicrobial composition was used comprising 3-phenyl propanol added to the model skin lotion containing both sodium benzoate and benzyl alcohol to enhance the antimicrobial activity at pH 6.5, a common pH for skin lotions.\n(§4) In FIG. 21 and FIG. 22, use of 3-phenyl propanol in the skin lotion set forth in Table 1 above was evaluated according to methods described in the Challenge Testing Methodology section using the microbes identified in Example 1. In this example, 3-phenyl propanol was added to the model skin lotion with sodium benzoate at 0.5 wt. % to enhance the antimicrobial activity at pH 6.5. In these examples, 0.5 wt. % of 3-phenyl propanol in addition to 0.5 wt. % sodium benzoate was required to pass the EP 2 day and 14-day criteria.\nas §4, with “23” for “21”, “24,” for “22,”, “section above,” for “section”, “benzyl alcohol” for “sodium benzoate”, “8.0.” for “6.5.”\nUse of sodium benzoate and benzyl alcohol at pH 6.5 in the skin lotion set forth in Table 1 above was evaluated according to methods described in paragraphs the Challenge Testing Methodology section above, using the microbes identified in Example 1. Again, in this case, only 2-day and 14-day time points were measured."}, "[3]": {"test_system": "K. aerogenes (ATCC 13048) and P. aeruginosa (ATCC 9027)", "experiment": "Challenge testing in tryptic soy broth at pH 9, time points from ASTM 2574", "conditions": "pH 9, tryptic soy broth, up to one week", "description": "EP testing evaluates results at the 2-day, 7-day, 14-day, and 28-day marks. […] Strains of K. aerogenes (ATCC 13048) and P. aeruginosa (ATCC 9027) were utilized for this testing as they are commonly found in many products, including without limitation cosmetics and coatings. These organisms were challenged in the soy broth using the same methods described in the Challenge Testing Methodology section. The time points were selected from ASTM 2574, which is a method for evaluating antimicrobial efficacy in waterborne emulsion based paints."}}, "data": [{"smiles": "OCCCc1ccccc1", "note": "[3-phenyl propanol]", "values": [{"measurement": "effectiveness against microbe strains compared to no antimicrobial", "setting": "[1]; pH 3, tryptic soy broth, up to 28 days", "result": "demonstrated the effectiveness"}, {"measurement": "effectiveness against microbe strains compared to no antimicrobial", "setting": "[1]; pH 10, tryptic soy broth", "result": "demonstrated the effectiveness"}, {"measurement": "concentration achieving passing efficacy according to EP criteria", "setting": "[1]; pH 6.5", "result": 1, "unit": "wt. %"}, {"measurement": "concentration achieving passing efficacy according to USP-51 criteria", "setting": "[1]; pH 6.5", "result": 0.5, "unit": "wt. %"}, {"measurement": "efficacy versus bacteria, yeast and mold", "setting": "[1]; pH 6.5, various concentrations", "result": "efficacious versus bacteria, yeast and mold"}, {"measurement": "concentration achieving passing efficacy according to EP criteria", "setting": "[1]; pH 8.0", "result": 1, "unit": "wt. %"}, {"measurement": "concentration achieving passing efficacy according to USP-51 criteria", "setting": "[1]; pH 8.0", "result": 0.25, "unit": "wt. %"}, {"measurement": "efficacy versus bacteria, yeast and mold", "setting": "[1]; pH 8.0, various concentrations", "result": "efficacious versus bacteria, yeast and mold"}, {"measurement": "addition of 3-phenyl propanol meeting the two-day criteria of the European Pharmacopeia", "setting": "[2]; skin lotion pH 6.5 with 0.25 wt. % sodium benzoate and 0.25 wt. % benzyl alcohol", "result": 0.35, "unit": "wt. %"}, {"measurement": "effect of small concentrations on performance against E. coli and S. aureus versus control (0 wt. %)", "setting": "[2]; skin lotion pH 6.5 with 0.25 wt. % sodium benzoate and 0.25 wt. % benzyl alcohol, after 14 days", "result": "significantly decreased performance"}, {"measurement": "loading of 3-phenyl propanol achieving the required 14-day efficacy under European Pharmacopeia criteria", "setting": "[2]; skin lotion pH 6.5 with 0.25 wt. % sodium benzoate and 0.25 wt. % benzyl alcohol, bacteria, mold and yeast", "result": "approximately 0.35 wt. %"}, {"measurement": "3-phenyl propanol required to pass the EP 2 day and 14-day criteria", "setting": "[2]; skin lotion pH 6.5 with 0.5 wt. % sodium benzoate", "result": 0.5, "unit": "wt. %"}, {"measurement": "3-phenyl propanol required to pass the EP 2 day and 14-day criteria", "setting": "[2]; skin lotion pH 8.0 with 0.5 wt. % benzyl alcohol", "result": 0.5, "unit": "wt. %"}]}, {"smiles": "CC(CO)Cc1ccccc1", "note": "(stereo not drawn) [2-methyl-3-phenyl propanol]", "values": [{"measurement": "antimicrobial effectiveness over time", "setting": "[3]; 0.5 wt. %", "result": "unexpected antimicrobial effectiveness"}]}, {"smiles": "OCc1ccccc1", "note": "[benzyl alcohol, reference compound]", "values": [{"measurement": "antimicrobial effectiveness over time", "setting": "[3]; 2.5 wt. %", "result": "unexpected antimicrobial effectiveness"}]}]}
